Reference: patent publication US20200163995A1, “PHAR[…] AND USES THEREOF” (Johnpro Biotech Inc., priority 2017, published 2020)
Read-outs that look alike come from different tables or passages of the source.

Tests used:
[1] = system: CEA expression on cancer cells; experiment: Determination of CEA expression on cancer cells by flow cytometry after drug treatment; assay type: cell-based, Human; conditions: data not shown
Description: The expression level of CEA on cancer cells were determined by flow cytometry. Cancer cells were stained with the human CEA-specific antibody followed by the analysis of flow cytometry. The fluorescence intensities of at least 10^5 cells were recorded and analyzed by software. Geometric mean was chosen as mean fluorescence intensity (MFI).
(§1) In this example, cancer cells were first treated with various types of anti-cancer drugs, before been subject to the treatment of NK92MI-CEA cells.

HCT116 cells [2] = experiment: 5-fluorouracil IC50 in HCT116 cells alone or co-treated with sodium butyrate or 5-azacytidine; assay type: cell-based, Human; conditions: for induction of drug resistance (5-fluorouracil) in cancer cells: HCT116 and WiDr cells, co-treatment with 5-fluorouracil 72 hours, sodium butyrate 0.1 mM, 5-azacytidine 1 μM
Description: (§2) Human colon cancer cell line LS174T (ATCC® CL-188™) and WiDr cells (ATCC CCL-218™) were maintained in alpha modification of Eagle's minimum essential medium (α-MEM) containing 1.5 g/L sodium bicarbonate and 10% fetal bovine serum (FBS). HCT116 cells (ATCC® CCL-247™) were cultured in McCoy's 5A medium containing 1.5 g/L sodium bicarbonate, 4.5 g/L glucose, 10 mM HEPES, 1.0 mM sodium pyruvate and 10% FBS. The NK92MI and NK92MI-CEA cells were cultured in α-MEM supplemented with 1.5 g/L sodium bicarbonate, 0.2 mM inositol, 0.02 mM folic acid, 0.01 mM 2-mercaptoethanol, 10% FBS and 12.5% horse serum. All cells were incubated at 37° C. in a humidified incubator with 5% CO2.
(§3) HCT116 and WiDr cells were co-treated with sodium butyrate (0.1 mM) or 5-azacytidine (1 μM) and different concentration of 5-fluorouracil (1.2, 2.4, 4.8, 9.6, and 19.2 μM) for 72 hours.

HCT116 cells [3] = system: HCT116 cells
Description: In this experiment, the cancer cells (i.e., HCT116 or WiDr cells) and the NK cells (i.e., NK92MI or NK92MI-CEA cells) respectively served as the target and effector cells. In brief, the target cells were co-incubated with the effector cells at various effector/target ratios (E/T), including 10:1, 5:1, 1:1, and 0.5:1, in a round-bottom 96-well culture plate. After incubating at 37° C. for 24 hours, 50 μl of the supernatant was isolated and mixed with 50 μl of CYTOTOX 96® Reagent in a flat-bottom 96-well enzymatic assay plate. The mixture was incubated at room temperature for 30 minutes followed by adding 50 μl stop solution (H2SO4) to stop the reaction. The absorbance was measured at 490 nm. The percentage of cytotoxicity for each effector:target cell ratio was calculated by the equation of,
(Experimental−culture medium background)−(Effector cell spontaneous release−culture medium background)−(Target spontaneous release−culture medium background)/(Target maximum release−volume correction control−Target spontaneous release−culture medium background)×100.

cancer cells = experiment: Resistance of drug-treated cancer cells to chemotherapy and radiation therapy (data not shown); assay type: cell-based
Excerpt: as §1

WiDr cells [4] = experiment: 5-fluorouracil IC50 in WiDr cells alone or co-treated with sodium butyrate or 5-azacytidine; assay type: cell-based; conditions: Homo sapiens, 72 hours, co-treatment sodium butyrate 0.1 mM or 5-azacytidine 1 μM, three independent experiments, read-out: IC50 of 5-fluorouracil (μM) Mean ± SD
Description: as §2, §3

[5] = system: serum circulating CEA (cCEA); experiment: Serum circulating CEA (ELISA) in WiDr tumor-bearing SCID mice; assay type: in vivo; conditions: FIG. 4C, control group 520 pg/ml
WiDr cells [6] = experiment: WiDr xenograft in SCID mice, tumor volume; assay type: in vivo; conditions: SCID mice with WiDr tumors
Description: 2×10^6 WiDr cells were subcutaneously implanted on the back of 9-weeks-old SCID mice. When tumors reached a volume of 100-200 mm^3, the mice were intraperitoneally administered with 200 mg/kg sodium butyrate for 5 consecutive days. Then, the mice were assigned into five groups: (1) control group, in which the mice were orally administrated with PBS every day, and intraperitoneally administrated with PBS every 4 days; (2) NaB group, in which the mice were orally administrated with 5 g/kg sodium butyrate every day, and intraperitoneally administrated with PBS every 4 days; (3) NK92MI group, in which the mice were orally administrated with PBS every day, and intraperitoneally administrated with NK92MI cells every 4 days; (4) NK92MI-CEA group, in which the mice were orally administrated with PBS every day, and intraperitoneally administration with NK92MI-CEA cells every 4 days; and (5) NK92MI-CEA+NaB group, in which the mice were orally administration with 5 g/kg sodium butyrate every day, and intraperitoneally administration with NK92MI-CEA every 4 days. Tumor volume of the mice was measured every 2-3 days, and tumor volumes on were calculated using the formula: length×(width)^2÷2 (*p<0.05). […]
The in vivo anti-tumor activity of NK92MI-CEA cells was evaluated in this example. […]

| IC50 (WiDr cells [4]) | IC50 (HCT116 cells [2]; Homo sapiens, HCT-116, HCT116 cells, 72 hours, co-treatment sodium butyrate 0.1 mM or 5-azacytidine 1 μM, three independent experiments, read-out: IC50 of 5-fluorouracil (μM) Mean ± SD) | Structure (SMILES) | CEA expression on cancer cells [1] | induction of drug resistance (5-fluorouracil) in cancer cells (HCT116 cells [2]) | enhancement of cytotoxic effect of NK92MI-CEA cells (HCT116 cells [3]) | resistance of cancer cells to chemotherapy and radiation therapy (cancer cells) | enhancement of cytotoxic effect of NK92MI-CEA cells (HCT116 cells [3]; HCT116 cells treated with agent, E/T ratio 10:1, 5:1, 1:1 or 0.5:1, versus control and untreated groups, FIGS. 3A, 3B) | concentration of cCEA in the serum of mice [5] | tumor growth (FIG. 4A) (WiDr cells [6]; NK cells i.p. every 4 days, sodium butyrate 5 g/kg orally every day) | tumour growth / tumour size (FIG. 4B) (WiDr cells [6]; compared to control group) |
| --- | --- | --- | --- | --- | --- | --- | --- | --- | --- | --- |
| – | – | Nc1ncn([C@@H]2O[C@H](CO)[C@@H](O)[C@H]2O)c(=O)n1 [5-azacytidine] | significantly increased CEA expression | induced drug resistance in cancer cells | significantly enhanced cytotoxic effect | rendered the cancer cells resistant to the chemotherapy and radiation therapy | – | – | – | – |
| 4.67 ± 0.55 µM | 4.39 ± 3.1 µM | O=c1[nH]cc(F)c(=O)[nH]1 [5-fluorouracil] | – | – | – | – | – | – | – | – |
| – | – | CCCC(=O)[O-].[Na+] [sodium butyrate] | significantly increased CEA expression | induced drug resistance in cancer cells | – | rendered the cancer cells resistant to the chemotherapy and radiation therapy | significantly enhanced cytotoxic effect | 990 pg/mL | obviously enhanced the anti-tumor effect of NK92MI-CEA cells | did not obviously inhibit tumour growth |
